# Results published in US20260262643A1, “HERBICIDAL BENZOXAZINES” (FMC CORPORATION, priority 2022, published 2026).
# Experiments:
# [1] = test system: soybean; assay: Test C preemergence; type: in vivo, Glycine max; conditions: 0 to 100 scale (0 no effect, 100 complete control); for Soybean plant response rating: preemergence
# Method in brief: (§1)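 Seeds in loam–sand blend received preemergence directed soil spray of test chemicals in non-phytotoxic solvent with surfactant; postemergence treatment was applied at one- to two-leaf stage (2–10 cm). After 10 days in greenhouse, injury rated visually versus untreated controls, 0 (no effect) to 100 (complete control).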
# [2] = test system: kochia; assay: Test C postemergence; type: in vivo, Bassia scoparia; conditions: 10 days
# Method in brief: as §1
# [3] = test system: pigweed, palmer; assay: Test C postemergence; type: in vivo, Amaranthus palmeri; conditions: 10 days
# Method in brief: as §1
# [4] = test system: ragweed; assay: Test C preemergence; type: in vivo, Ambrosia artemisiifolia; conditions: 0 to 100 scale (0 no effect, 100 complete control); for Ragweed plant response rating: preemergence
# Method in brief: as §1
# [5] = test system: barnyardgrass; assay: Test C preemergence; type: in vivo, Echinochloa crusgalli; conditions: 0 to 100 scale (0 no effect, 100 complete control); for Plant response rating, Barnyardgrass: Preemergence, 500 g ai/ha, visual rating after 10 days; for Barnyardgrass plant response rating: Test C, preemergence, 125 g ai/ha
# Method in brief: as §1
# [6] = test system: pigweed, palmer; assay: Test C preemergence; type: in vivo, Amaranthus palmeri; conditions: 0 to 100 scale (0 no effect, 100 complete control); for Pigweed, Palmer plant response rating: preemergence
# Method in brief: as §1
# [7] = test system: corn; assay: Test C postemergence; type: in vivo, Zea mays; conditions: 10 days
# Method in brief: as §1
# [8] = test system: wheat; assay: Test C postemergence; type: in vivo, Triticum aestivum; conditions: 10 days
# Method in brief: as §1
# [9] = test system: ryegrass, Italian; assay: Test C preemergence; type: in vivo, Lolium multiflorum; conditions: 0 to 100 scale (0 no effect, 100 complete control); for Ryegrass, Italian plant response rating: preemergence
# Method in brief: as §1
# [10] = test system: green foxtail; assay: Test C postemergence; type: in vivo, Setaria viridis; conditions: 10 days
# Method in brief: as §1
# [11] = test system: blackgrass; assay: Test C postemergence; type: in vivo, Alopecurus myosuroides; conditions: 10 days
# Method in brief: as §1
# [12] = test system: kochia; assay: Test C preemergence; type: in vivo, Bassia scoparia; conditions: 0 to 100 scale (0 no effect, 100 complete control); for Kochia plant response rating: preemergence
# Method in brief: as §1
# [13] = test system: corn; assay: Test C preemergence; type: in vivo, Zea mays; conditions: 0 to 100 scale (0 no effect, 100 complete control); for Corn plant response rating: preemergence
# Method in brief: as §1
# [14] = test system: barnyardgrass; assay: Test C postemergence; type: in vivo, Echinochloa crusgalli; conditions: 10 days
# Method in brief: as §1
# [15] = test system: galium; assay: Test C postemergence; type: in vivo, Galium aparine; conditions: 10 days
# Method in brief: as §1
# [16] = test system: blackgrass; assay: Test C preemergence; type: in vivo, Alopecurus myosuroides; conditions: 0 to 100 scale (0 no effect, 100 complete control); for Plant response rating, Blackgrass: Preemergence, 500 g ai/ha, visual rating after 10 days; for Blackgrass plant response rating: Test C, preemergence, 125 g ai/ha
# Method in brief: as §1
# [17] = test system: ragweed; assay: Test C postemergence; type: in vivo, Ambrosia artemisiifolia; conditions: 10 days
# Method in brief: as §1
# [18] = test system: ducksalad; assay: Test D flooded paddy test; type: in vivo, Heteranthera limosa; conditions: 250 g ai/ha, applied to paddy water, visual rating after 13 to 14 days, scale 0 to 100 (0 no effect, 100 complete control)
# Method in brief: (§2)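 Compounds go straight into paddy water over 2-leaf plants in pots flooded to 3 cm. Greenhouse holding lasts 13 to 14 days. Injury is scored by eye against controls from 0 (none) to 100 (complete control).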
# [19] = test system: oat, wild; assay: Test C postemergence; type: in vivo, Avena fatua; conditions: 10 days
# Method in brief: as §1
# [20] = test system: rice; assay: Test D flooded paddy test; type: in vivo, Oryza sativa; conditions: 250 g ai/ha, applied to paddy water, visual rating after 13 to 14 days, scale 0 to 100 (0 no effect, 100 complete control)
# Method in brief: as §2
# [21] = test system: wheat; assay: Test C preemergence; type: in vivo, Triticum aestivum; conditions: 0 to 100 scale (0 no effect, 100 complete control); for Wheat plant response rating: preemergence
# Method in brief: as §1
# [22] = test system: oat, wild; assay: Test C preemergence; type: in vivo, Avena fatua; conditions: 0 to 100 scale (0 no effect, 100 complete control); for Oat, Wild plant response rating: preemergence
# Method in brief: as §1
# [23] = test system: barnyardgrass; assay: Test D flooded paddy test; type: in vivo, Echinochloa crus-galli; conditions: 250 g ai/ha, applied to paddy water, visual rating after 13 to 14 days, scale 0 to 100 (0 no effect, 100 complete control)
# Method in brief: as §2
# [24] = test system: horseweed; assay: Test C postemergence; type: in vivo, Erigeron canadensis; conditions: 10 days
# Method in brief: as §1
# [25] = test system: sedge, umbrella; assay: Test D flooded paddy test; type: in vivo, Cyperus difformis; conditions: 250 g ai/ha, applied to paddy water, visual rating after 13 to 14 days, scale 0 to 100 (0 no effect, 100 complete control)
# Method in brief: as §2
# [26] = test system: green foxtail; assay: Test C preemergence; type: in vivo, Setaria viridis; conditions: 0 to 100 scale (0 no effect, 100 complete control); for Foxtail, Green plant response rating: preemergence
# Method in brief: as §1
# [27] = test system: soybean; assay: Test C postemergence; type: in vivo, Glycine max; conditions: 10 days
# Method in brief: as §1
# [28] = test system: ryegrass, Italian; assay: Test C postemergence; type: in vivo, Lolium multiflorum; conditions: 10 days
# Method in brief: as §1
# [29] = 125 g ai/ha, postemergence, 0 to 100 scale, 0 no effect, 100 complete control
# [30] = Postemergence, 500 g ai/ha, visual 0 to 100 scale (0 no effect, 100 complete control)
# [31] = Preemergence, 500 g ai/ha, visual rating after 10 days
structure (smiles),measurement,setting,value
CCc1ccc(-n2cnc(C(C)(C)O)n2)cc1C(=O)N1C[C@H](C)Oc2c(Cl)cccc21 [Compound 277],Soybean plant response rating,[1]; 500 g ai/ha,100
same,Soybean plant response rating,"[1]; Test C, 125 g ai/ha",90
same,"Plant response rating, Kochia",[2]; [29],70
same,"Plant response rating, Pigweed, Palmer",[3]; [29],80
same,Ragweed plant response rating,[4]; 500 g ai/ha,70
same,Ragweed plant response rating,"[4]; Test C, 125 g ai/ha",30
same,"Plant response rating, Barnyardgrass",[5],100
same,Barnyardgrass plant response rating,[5],100
same,"Pigweed, Palmer plant response rating",[6]; 500 g ai/ha,100
same,"Pigweed, Palmer plant response rating","[6]; Test C, 125 g ai/ha",100
same,"Plant response rating, Corn",[7]; [29],90
same,"Plant response rating, Corn",[7]; [30],100
same,"Plant response rating, Wheat",[8]; [29],50
same,"Ryegrass, Italian plant response rating",[9]; 500 g ai/ha,100
same,"Ryegrass, Italian plant response rating","[9]; Test C, 125 g ai/ha",80
same,"Plant response rating, Foxtail, Green",[10]; [29],90
same,"Plant response rating, Foxtail, Green",[10]; [30],90
same,"Plant response rating, Blackgrass",[11]; [29],80
same,"Plant response rating, Blackgrass",[11]; [30],90
same,Kochia plant response rating,[12]; 500 g ai/ha,90
same,Kochia plant response rating,"[12]; Test C, 125 g ai/ha",70
same,Corn plant response rating,[13]; 500 g ai/ha,80
same,Corn plant response rating,"[13]; Test C, 125 g ai/ha",50
same,"Plant response rating, Barnyardgrass",[14]; [29],100
same,"Plant response rating, Barnyardgrass",[14]; [30],100
same,"Plant response rating, Galium",[15]; [29],100
same,"Plant response rating, Galium",[15]; [30],100
same,"Plant response rating, Blackgrass",[16],90
same,Blackgrass plant response rating,[16],80
same,"Plant response rating, Ragweed",[17]; [29],80
same,"Plant response rating, Ducksalad (Flood)",[18],40
same,"Plant response rating, Oat, Wild",[19]; [29],80
same,"Plant response rating, Rice (Flood)",[20],15
same,Wheat plant response rating,[21]; 500 g ai/ha,80
same,Wheat plant response rating,"[21]; Test C, 125 g ai/ha",50
same,"Oat, Wild plant response rating",[22]; 500 g ai/ha,90
same,"Oat, Wild plant response rating","[22]; Test C, 125 g ai/ha",80
same,"Plant response rating, Barnyardgrass (Flood)",[23],55
same,"Plant response rating, Horseweed",[24]; [29],0
same,"Plant response rating, Horseweed",[24]; [30],30
same,"Plant response rating, Sedge, Umbrella (Flood)",[25],98
same,"Foxtail, Green plant response rating",[26]; 500 g ai/ha,100
same,"Foxtail, Green plant response rating","[26]; Test C, 125 g ai/ha",100
same,"Plant response rating, Soybean",[27]; [29],100
same,"Plant response rating, Ryegrass, Italian",[28]; [29],90
COc1ccc(-n2cncn2)cc1C(=O)N1C[C@H](C)Oc2ccccc21 [Compound 228],"Plant response rating, Soybean",[1]; [31],90
same,Soybean plant response rating,"[1]; Test C, 125 g ai/ha",70
same,"Plant response rating, Kochia",[2]; [29],50
same,"Plant response rating, Kochia",[2]; [30],70
same,"Plant response rating, Pigweed, Palmer",[3]; [29],70
same,"Plant response rating, Pigweed, Palmer",[3]; [30],90
same,"Plant response rating, Ragweed",[4]; [31],50
same,Ragweed plant response rating,"[4]; Test C, 125 g ai/ha",40
same,"Plant response rating, Barnyardgrass",[5],100
same,Barnyardgrass plant response rating,[5],90
same,"Plant response rating, Pigweed, Palmer",[6]; [31],100
same,"Pigweed, Palmer plant response rating","[6]; Test C, 125 g ai/ha",100
same,"Plant response rating, Corn",[7]; [29],40
same,"Plant response rating, Corn",[7]; [30],80
same,"Plant response rating, Wheat",[8]; [29],50
same,"Plant response rating, Wheat",[8]; [30],90
same,"Plant response rating, Ryegrass, Italian",[9]; [31],90
same,"Ryegrass, Italian plant response rating","[9]; Test C, 125 g ai/ha",90
same,"Plant response rating, Foxtail, Green",[10]; [29],30
same,"Plant response rating, Foxtail, Green",[10]; [30],90
same,"Plant response rating, Blackgrass",[11]; [29],80
same,"Plant response rating, Blackgrass",[11]; [30],90
same,"Plant response rating, Kochia",[12]; [31],60
same,Kochia plant response rating,"[12]; Test C, 125 g ai/ha",0
same,"Plant response rating, Corn",[13]; [31],60
same,Corn plant response rating,"[13]; Test C, 125 g ai/ha",10
same,"Plant response rating, Barnyardgrass",[14]; [29],60
same,"Plant response rating, Barnyardgrass",[14]; [30],90
same,"Plant response rating, Galium",[15]; [29],100
same,"Plant response rating, Galium",[15]; [30],100
same,"Plant response rating, Blackgrass",[16],90
same,Blackgrass plant response rating,[16],80
same,"Plant response rating, Ragweed",[17]; [29],10
same,"Plant response rating, Ragweed",[17]; [30],30
same,"Plant response rating, Ducksalad (Flood)",[18],80
same,"Plant response rating, Oat, Wild",[19]; [29],30
same,"Plant response rating, Oat, Wild",[19]; [30],80
same,"Plant response rating, Rice (Flood)",[20],25
same,"Plant response rating, Wheat",[21]; [31],30
same,Wheat plant response rating,"[21]; Test C, 125 g ai/ha",20
same,"Plant response rating, Oat, Wild",[22]; [31],90
same,"Oat, Wild plant response rating","[22]; Test C, 125 g ai/ha",40
same,"Plant response rating, Barnyardgrass (Flood)",[23],15
same,"Plant response rating, Horseweed",[24]; [29],10
same,"Plant response rating, Horseweed",[24]; [30],30
same,"Plant response rating, Sedge, Umbrella (Flood)",[25],95
same,"Plant response rating, Foxtail, Green",[26]; [31],100
same,"Foxtail, Green plant response rating","[26]; Test C, 125 g ai/ha",100
same,"Plant response rating, Soybean",[27]; [29],100
same,"Plant response rating, Soybean",[27]; [30],100
same,"Plant response rating, Ryegrass, Italian",[28]; [29],100
same,"Plant response rating, Ryegrass, Italian",[28]; [30],100
